*1 amine or outer side, *2 acyl side, *3 side chain or, on linkers, in order; H or OH if unused. Where a SMILES comes first, the peptide text is derived from it. [ ]: non-standard residue; d: D form. X1 = O=C([C@@H]1C[C@H](n2cc([C]34[CH]5[CH]6[CH]7[CH]3[Fe]6754389%10[CH]4[CH]3[CH]8[CH]9[CH]4%10)nn2)CN1[*:1])[*:2]; X2 = O=C([C@@H]1C[C@H](n2nncc2[C]23[CH]4[CH]5[CH]6[CH]2[Fe]56432789[CH]3[CH]2[CH]7[CH]8[CH]39)CN1[*:1])[*:2]; Bta = N[C@@H](Cc1csc2ccccc12)C(=O)O
Legend:
[1] = biological target: wt gp120YU-2 (Human immunodeficiency virus type 1 group M subtype B, UniProt P35961); assay: Competition SPR: inhibition of wt gp120YU-2 binding to immobilized sCD4; parameters: species or system HIV-1; details: relative to peptide 1
[2] = biological target: gp120YU-2 S375H (Human immunodeficiency virus type 1 group M subtype B, UniProt P35961, S370H); assay: Competition SPR: inhibition of gp120 S375H binding to sCD4; parameters: species or system HIV-1

| SMILES | weaker binding than peptide 1 [1] | inhibition of S375H mutant binding to sCD4 [2] |
| --- | --- | --- |
| CC[C@H](C)[C@H](N)C(=O)N[C@@H](CC(N)=O)C(=O)N[C@@H](CC(N)=O)C(=O)N[C@H](C(=O)N1C[C@@H](n2nncc2[C]23[CH]4[CH]5[CH]6[CH]2[Fe]56432789[CH]3[CH]2[CH]7[CH]8[CH]39)C[C@H]1C(=O)N[C@@H](Cc1c[nH]c2ccccc12)C(N)=O)[C@@H](C)CC (some centres unmarked) [peptide 6] (H-INNI[X2]W-NH2) | ~200 fold |  |
| CC[C@H](C)[C@H](N)C(=O)N[C@@H](CC(N)=O)C(=O)N[C@@H](CC(N)=O)C(=O)N[C@H](C(=O)N1C[C@@H](n2cc([C]34[CH]5[CH]6[CH]7[CH]3[Fe]6754389%10[CH]4[CH]3[CH]8[CH]9[CH]4%10)nn2)C[C@H]1C(=O)N[C@@H](Cc1csc2ccccc12)C(N)=O)[C@@H](C)CC (some centres unmarked) [peptide 3] (H-INNI[X1][Bta]-NH2) |  | resistant |
